The values below come from patent US20040259864A1, “Substituted pyrimidinone derivatives as ligands of integrin receptors” (priority 2001, published 2004).

For this assay, the target named is T1, integrin αvβ3 (Homo sapiens, UniProt P05106+P06756).
T1 construct: from tissue; host or cells: human placenta
The assay is described as follows: Integrin αvβ3 assay (competition with vitronectin for binding to solid-phase integrin αvβ3). Particulars: integrin αvβ3 from human placenta, ranking in words only. The method, then: Integrin αvβ3 antagonists were identified and assessed using a test system based on competition between the natural integrin αvβ3 ligand vitronectin and the test substance for binding to integrin αvβ3 bound to a solid phase. […]
coat microtiter plates with 250 ng/ml integrin-αvβ3 in 0.05 M NaHCO3 pH 9.2; 0.1 ml/well; […]
saturate with 1% milk powder/assay buffer; 0.3 ml/well; 0.5 h/RT wash 3× with 0.05% Tween 20/assay buffer
Test substance in 0.1% milk powder/assay buffer, 50 μl/well+0 μg/ml or 2 μg/ml human vitronectin (Boehringer Ingelheim T007) in 0.1% milk powder/assay buffer, 50 μl/well; 1 h/RT […]
1 μg/ml anti human vitronectin antibody coupled to peroxidase (Kordia SAVN-APHRP) in 0.1%: milk powder/assay buffer; 0.1 ml/well; 1 h/RT […]
0.1 ml/well peroxidase substrate […]
stop reaction with 0.1 ml/well 2 M H2SO4 […]
measure the absorption at 450 nm
Integrin αvβ3: human placenta is solubilized with Nonidet, and integrin αvβ3 is affinity-purified on a GRGDSPK matrix (elution with EDTA). Contamination by integrin αIIbβ3 and human serum albumin, as well as the detergent and EDTA, are removed by anion exchange chromatography.
Assay buffer: 50 mM tris pH 7.5; 100 mM NaCl; 1 mM CaCl2; 1 mM MgCl2; 10 ΞM MnCl2 […]
Peroxidase substrate: mix 0.1 ml of TMB solution (42 mM TMB In DMSO) and 10 ml of substrate buffer (0.1 M Na acetate pH 4.9) and then add 14.7 pi of 3% H2O2. […]

Turning to `Cc1cn(CC(Cc2ccc3ccccc3c2)C(=O)O)c(=O)nc1N1CCC(Nc2nc3ccccc3[nH]2)CC1.O=C(O)C(F)(F)F` (stereo not shown) [Compound I, 2-[(1-{1-[2-Carboxy-3-(2-naphthyl)propyl]-5-methyl-2-oxo-1,2-dihydropyrimidin-4-yl)-piperidin-4-yl)amino]-1H-benzimidazol-1-ium trifluoroacetate], the “IC50 values (concentration of the ligand at which 50% of the ligand is displaced)” value is on record as “best result”.
